Reference: patent US5242916A, “Method for treatment of neurodegenerative diseases” (R. J. Reynolds Tobacco Company, priority 1992, dated 1993)

Legend:
[1] = tested on: synaptosomes from the striatal area of rat brain; experiment: [3H]-Dopamine release from rat striatal synaptosomes; type: biochemical, Sprague-Dawley rats; settings: Percent release relative to (S)(-)nicotine at equal concentration, 0.2 ml of a 10 μM solution of ligand
Procedure: Dopamine release was measured by preparing synaptosomes from the striatal area of rat brain obtained from Sprague-Dawley rats generally according to the procedures set forth by Nagy, et al., J. Neurochem., Vol. 43, pp. 1114-1123 (1984). Striata from 4 rats were homogenized in 2 ml of 0.32M sucrose buffered with 5 mM HEPES (pH 7.5), using a glass-teflon tissue grinder. The homogenate was diluted to 5 ml with additional homogenization solution and centrifuged at 1000×g for 10 min. This procedure was repeated on the new pellet and the resulting supernatant was centrifuged at 12,000×g for 20 min. […] Using this method, 30 to 90 percent of the dopamine was taken up into the synaptosomes, as determined by scintillation counting following filtration through glass fiber filters soaked with 0.5 percent polyethyleneimine. […] After the addition of a 0.2 ml of a 10 μM solution of ligand, the perfusate was collected into scintillation vials at 1 min. intervals and the dopamine released was quantified by scintillation counting. Peaks of radioactivity released above background were summed and the average basal release during that time was subtracted from the total. Release was expressed as a percentage of release obtained with an equal concentration of (S)-(-)-nicotine.

[2] = target: high affinity nicotinic receptors; experiment: Inhibition of L-[3H]nicotine binding to mouse brain membrane preparations; design: species or system Mice (DBA strain); settings: mouse brain membranes, 2 hr at 4° C., 10 nM L-[3H]nicotine, Ki calculated from IC50 by the method of Cheng et al.
Procedure: Mice (DBA strain) were maintained on a 12 hour light/dark cycle and were allowed free access to water and food supplied by Wayne Lab Blox, Madison, Wis. Animals used in the present studies were 60 to 90 days of age and weighed 20 to 25 g. Brain membrane preparations were obtained from pooled brain tissue of both males and females.
Mice were killed by cervical dislocation. Brains were removed and placed on an ice-cold platform. […] Protein was determined by the method of Lowry, et al., J. Biol. Chem., Vol. 193, pp. 265-275 (1951), using bovine serum albumin as the standard.
The binding of L-[^3 H]nicotine was measured using a modification of the method of Romano, et al., Science, Vol. 210, pp. 647-650 (1980) as described previously by Marks, et al., Mol. Pharmacol., Vol. 30, pp. 427-436 (1986). The binding of L-[^3 H]nicotine was measured using a 2 hr. incubation at 4° C. […] Nonspecific binding was determined by inclusion of 10 μM nonradioactive nicotine in the incubations. The inhibition of L-[^3 H]nicotine binding by test compounds was determined by including one of eight different concentrations of the test compound in the incubation. […] Inhibition constants (Ki values) were calculated from the IC50 values using the method of Cheng, et al., Biochem. Pharmacol., Vol. 22, pp. 3099-3108 (1973). […]

Structure (SMILES)	Dopamine Release [1] [%]	Ki [2] [nM]
CN1CC2CC(C1)c1cccc(=O)n1C2 (stereo not shown) [N-methylcytisine]	29	36
O=c1cccc2n1C[C@@H]1CNC[C@H]2C1 [cytisine]	82	0.4
